How the values were obtained:
[1] = Highest frequency of acute liver toxicity observed during clinical trials, expressed as a percentage. [column '% AIGUE' in source]; details: human
[2] = human
[3] = human; remark: listed apart in the source
[4] = human; remark: listed apart in the source
[5] = human; remark: listed apart in the source
[6] = human, serum, 4383 h
[7] = Highest frequency of moderate liver toxicity observed during clinical trials, expressed as a percentage. [column '% BIOL' in source]; details: human
[8] = human, serum
[9] = human; remark: listed apart in the source
[10] = human; remark: listed apart in the source
[11] = human; remark: listed apart in the source
[12] = human, serum; remark: listed apart in the source
[13] = human; remark: listed apart in the source
[14] = human; remark: listed apart in the source
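Throughout, for Hepatotoxicity (association with vascular disease): count of indexed literature references reporting vascular liver injury in humans, e.g. peliosis hepatitis, hepatic veno-occlusive disease or Budd-Chiari syndrome.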
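Throughout, for Hepatotoxicity (benign tumour): value is a count of indexed literature references citing a benign tumour confirmed by histopathology.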
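Throughout, for Hepatotoxicity (choleostasis): human cholestatic liver injury, shown by histopathology or by peak ALT or AST elevation over alkaline phosphatase ratio below 2, value counts indexed literature reports.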
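Throughout, for Hepatotoxicity (chronic liver disease): chronic liver injury confirmed by histopathology or persistently raised serum aminotransferase activity beyond 6 months, value given as the count of indexed literature references.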
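Throughout, for Hepatotoxicity (cirrhosis): value is a count of indexed literature references reporting cirrhosis confirmed by histopathology.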
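Throughout, for Hepatotoxicity (cytolytic): human cytolytic liver injury, shown by histopathology or by a ratio above 5 of peak ALT or AST elevation to alkaline phosphatase elevation, value counts indexed references.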
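Throughout, for Hepatotoxicity (granulomatous hepatitis): value is a count of indexed literature references reporting granulomatous liver disease confirmed by histopathology.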
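Throughout, for Hepatotoxicity (malignant tumour): malignant tumour confirmed by histopathology, value gives the count of indexed literature references reporting it.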
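Throughout, for Hepatotoxicity (severe hepatitis): human clinical data: severe hepatitis, meaning potentially life-threatening liver failure or clinically observed cases, the value counts how many indexed literature references report it.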
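Throughout, for Hepatotoxicity (steatosis): steatosis confirmed by histopathology, value is the count of indexed references.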

Structure (SMILES)	Hepatotoxicity (acute) [1]	Hepatotoxicity (association with vascular disease) [2]	Hepatotoxicity (cirrhosis) [3]	Hepatotoxicity (choleostasis) [4]	Hepatotoxicity (malignant tumour) [5]	Hepatotoxicity (chronic liver disease) [6]	Hepatotoxicity (moderate) [7]	Hepatotoxicity (moderate) [8]	Hepatotoxicity (severe hepatitis) [9]	Hepatotoxicity (cytolytic) [10]	Hepatotoxicity (steatosis) [11]	Hepatotoxicity (acute) [12]	Hepatotoxicity (benign tumour) [13]	Hepatotoxicity (granulomatous hepatitis) [14]	Hepatotoxicity (acute) ([1]; Liver)	Hepatotoxicity (moderate) ([7]; Liver)	Hepatotoxicity (severe hepatitis) ([9]; Liver)
CCOC(=O)[C@H](CCc1ccccc1)N[C@@H](C)C(=O)N1Cc2ccccc2C[C@H]1C(=O)O	0%	0	0	0	0	0	10%	3	0	0	0	1	0	0			
CO/N=C(\C(=O)N[C@@H]1C(=O)N2C(C(=O)[O-])=C(C[N+]3(C)CCCC3)CS[C@H]12)c1csc(N)n1		0	0	0	0	0		52		0	0	0	0	0	0%	37.5%	0
CCc1nc(N)nc(N)c1-c1ccc(Cl)cc1.Nc1ccc(S(=O)(=O)c2ccc(N)cc2)cc1	2.9%	0	0	0	0	0	25.3%	1	0	1	0	3	0	0			
O=[N+]([O-])c1ccc(O)c([N+](=O)[O-])c1 [2,4-DINITROPHENOL]	0%	0	0	0	0	0	0%	0	2	0	0	3	0	0			
COCc1c(C(=O)OC(C)C)ncc2[nH]c3ccc(OCc4ccccc4)cc3c12 [ABECARNIL]	0%	0	0	0	0	0	8%	1	0	0	0	0	0	0			
N[C@H](C(=O)O)[C@@H]1CC(Cl)=NO1 [ACIVICIN]	0%	0	0	0	0	0	62%	3	0	0	0	0	0	0			
Nc1nc2c(ncn2COCCO)c(=O)[nH]1 [ACYCLOVIR]		0	0	0	0	0		18		1	0	1	0	0	1.9%	50%	0
Nc1ncnc2c1ncn2CCOCP(=O)(O)O [ADEFOVIR]	7.4%	0	0	0	0	0	33.3%	2	0	1	0	1	0	0			
CC(N)C(=O)OC(C)(C)Cc1ccc(Cl)cc1 (centres undefined) [ALAPROCLATE]	0%	0	0	0	0	0	0%	1	0	0	0	0	0	0			
O=C(O)CN1C(=O)c2cccc3cccc(c23)C1=O [ALRESTATIN]	0%	0	0	0	0	0	11.1%	2	0	0	0	0	0	0			
CC(C)(C)C(=O)OCOC(=O)[C@@H]1N2C(=O)[C@@H](/N=C/N3CCCCCC3)[C@H]2SC1(C)C [AMDINOCILLIN PIVOXIL]	0%	0	0	0	0	0	17.2%	1	0	0	0	0	0	0			
CNn1cc(C(=O)O)c(=O)c2cc(F)c(N3CCN(C)CC3)cc21 [AMIFLOXACIN]		0	0	0	0	0		1		1	0	1	0	0	1.7%	5%	0
NCC[C@H](O)C(=O)N[C@@H]1C[C@H](N)[C@@H](O[C@H]2O[C@H](CN)[C@@H](O)[C@H](O)[C@H]2O)[C@H](O)[C@H]1O[C@H]1O[C@H](CO)[C@@H](O)[C@H](N)[C@H]1O [AMIKACIN]	0%	0	0	0	0	0	15.3%	6	0	0	0	0	0	0			
CN(C)CCN1C(=O)c2cccc3cc(N)cc(c23)C1=O [AMONAFIDE]	0%	0	0	0	0	0	44%	5	0	0	0	0	0	0			
CC(C)(C#N)c1cc(Cn2cncn2)cc(C(C)(C)C#N)c1 [ANASTROZOLE]	0%	0	0	0	0	0	0%	1	0	0	0	0	0	0			
O=c1n(CC2CO2)c(=O)n(CC2CO2)n1CC1CO1 (centres undefined) [ANAXIRONE]	0%	0	0	0	0	0	0%	1	0	0	0	0	0	0			

Reference: ChEMBL document CHEMBL3137667, “[Drug-induced liver injury; fourteenth updated edition of the bibliographic database of liver injuries and related drugs]” (Gastroenterol Clin Biol, 2004)
